# According to patent publication US6774145B1, “Material separated from Ecklonia cava, method for extracting and purifying the same, and use thereof as antioxidants” (Ventree Co., Ltd, priority 2000, dated 2004):
# Columns and labels:
# [1] = DPPH radical scavenging activity (Blois method); type: biochemical; settings: reacted 10 min, absorbance at 517 nm
# Method: (§1) The antioxidative activity of the novel compound obtained through the extraction and purification process is evaluated by measuring its radical scavenging activity against 1,1-diphenyl-2-picrylhydrazyl (DPPH), which has free radicals attached thereto, according to the Blois method. A thermal stability of the compound of interest can be evaluated by measuring its antioxidative activity at plural temperature points.
# (§2) Dicaval A and Dicaval B obtained in Example 3 were measured for antioxidative activity according to the Blois method. For this, an examination was made of the radical scavenging activity of the two compounds against 1,1-diphenyl-2-picrylhydrazyl (DPPH) to which free radicals were attached. First, 20 mg of DPPH was dissolved in 150 ml of ethanol to prepare a DPPH solution. To 600 μl of the DPPH solution was added with 250 μl of dimethylsulfoxide (DMSO), diluted with an appropriate amount of ethanol and shaken for 10 seconds, after which this control was adjusted, in absorbance at 517 nm, from 0.94 to 0.97. To 1 ml of the DPPH solution which was adjusted from 0.94 to 0.97 likewise, each of the samples (μg to mg) was added and then, reacted for 10 min, followed by measuring the absorbance of the solution. The antioxidative activity of each of the samples was determined by the DPPH radical scavenging activity which was represented by a reduced absorbance compared with that of the control.
# The antioxidative activity was compared between the conventional antioxidants and the compounds of the invention and the results are given in Table 1, below.
# [2] = Thermal stability: antioxidative activity after heating for 1 hour; type: physicochemical
# Method: as §1, §2
# 50 μg of each of Dicaval A and Dicaval B obtained in Example 3 was heated at 40° C., 60° C., 80° C., and 100° C. for 1 hour to measure antioxidative activity.
# [3] = 50 μg heated at 40° C. for 1 hour
# [4] = 50 μg heated at 60° C. for 1 hour
# [5] = 50 μg heated at 80° C. for 1 hour
# [6] = 50 μg heated at 100° C. for 1 hour
"Thermal stability (Notes) [2, 3]","Thermal stability (Notes) [2, 4]","Thermal stability (Notes) [2, 5]","Thermal stability (Notes) [2, 6]",Compound,antioxidative activity (DPPH radical scavenging activity) ([1]; sample amount 10 μg),antioxidative activity (DPPH radical scavenging activity) ([1]; sample amount 20 μg),antioxidative activity (DPPH radical scavenging activity) ([1]; sample amount 100 μg),"Antioxidativity (Absorb. change) [2, 3]","Antioxidativity (Absorb. change) [2, 4]","Antioxidativity (Absorb. change) [2, 5]","Antioxidativity (Absorb. change) [2, 6]"
Stable,Stable,Stable,Stable,Oc1cc(O)c(Oc2c(O)cc(Oc3cc4oc5c(O)c(Oc6cc(O)c(Oc7c(O)cc(O)cc7O)c(O)c6)c(O)cc5c4cc3O)cc2O)c(O)c1 [Dicaval A],100%,100%,100%,0.87,0.89,0.88,0.90
Stable,Stable,Stable,Stable,Oc1cc(O)c(Oc2c(O)cc(Oc3c(O)cc4c(oc5c(O)c(Oc6cc(O)c(Oc7c(O)cc(O)cc7O)c(O)c6)c(O)cc54)c3O)cc2O)c(O)c1 [Dicaval B],100%,100%,100%,0.88,0.88,0.87,0.89
–,–,–,–,"O=C1O[C@H]([C@@H](O)CO)C(O)=C1O [Ascorbic acid, reference compound]",100%,100%,100%,–,–,–,–
